# Measured values taken from ChEMBL document CHEMBL1151682, “Insecticidal neolignans from Piper decurrens” (J Nat Prod, 1996).
# Active and inactive are the calls of the source. The calls are words filed in the database; no cut-off is given here.
# Test system: Aedes atropalpus
# Test: Toxicity in sOchlerotatus atropalpus second-instar larvae at 10 ppm after 24 hrs
# Format: functional, organism-based
row,Compound,Activity
1,C[C@H]1c2cc(C=O)ccc2O[C@@H]1c1ccc(O)cc1,inactive
2,C/C=C/c1ccc2oc(-c3ccc(O)cc3)c(C)c2c1,Active
3,c1csc(-c2ccc(-c3cccs3)s2)c1,Active
